The species entered for one data set is Rattus norvegicus. The experiment in a line: Toxicity in rat assessed as concentration required for producing T/C of 140. Type of data set: organism-based. The conditions noted are these: in vivo.
With `CN(C)/N=N/c1ccccc1`, the “log(1/C)” value was found to be 2.54.

As to `Cc1ccc(/N=N/N(C)C)cc1`, the “log(1/C)” value came out at 2.62.

With `CN(C)/N=N/c1ccc([N+](=O)[O-])cc1`, the “log(1/C)” value stood at 2.06.

For `COc1ccc(/N=N/N(C)C)cc1`, the “log(1/C)” value stood at 2.72.

Consider `CN(C)/N=N/c1ccc(I)cc1`, for which the “log(1/C)” value was 2.68.

For the molecule `CN(C)/N=N/c1ccc(Br)cc1`, the “log(1/C)” value was 2.73.

Consider `CN(C)/N=N/c1ccc(F)cc1`, for which the “log(1/C)” value was found to be 2.71.

For `CN(C)/N=N/c1ccc(Cl)cc1`, the “log(1/C)” value is 2.71.

The next data set is filed under the species Mus musculus. The experiment in a line: Toxicity in mouse assessed as concentration required for producing T/C of 140. Format: organism-based. The conditions noted are these: in vivo.
As for `CCN(CC)/N=N/c1[nH]cnc1C(N)=O`, the “log(1/C)” value amounted to 2.75.

`CCCN(CCC)/N=N/c1[nH]cnc1C(N)=O`: the “log(1/C)” value worked out at 2.7.

As to `CCCCN(CCCC)/N=N/c1[nH]cnc1C(N)=O`, the “log(1/C)” value was 2.91.

As for `CCCCCN(CCCCC)/N=N/c1[nH]cnc1C(N)=O`, the “log(1/C)” value amounted to 3.49.

For `CN(C)/N=N/c1[nH]cnc1C(N)=O` [DACARBAZINE], the “log(1/C)” value is listed as 2.44.

The species named for the next data set is Mus musculus. The experiment in a line: Toxicity in CDF1 mouse assessed as concentration required for producing T/C of 140. Type of data set: organism-based. The following applies: in vivo.
Turning to `CCCCN(C)/N=N/c1ccc(C(N)=O)cc1`, the “log(1/C)” value came to 3.46.

For the molecule `CCCCCCCCN(C)/N=N/c1ccc(C(N)=O)cc1`, the “log(1/C)” value was 2.8.

As for `CN(C)/N=N/c1ccccc1`, the “log(1/C)” value is recorded as 3.43.

Turning to `CN(C)/N=N/c1ccc(S(N)(=O)=O)cc1`, the “log(1/C)” value turned out to be 3.2.

In the case of `CN(C)/N=N/c1ccc(C(F)(F)F)cc1`, the “log(1/C)” value is 3.05.

Turning to `CN(C)/N=N/c1ccc(C#N)cc1`, the “log(1/C)” value was 3.2.

For `CN(C)/N=N/c1ccc(NC(N)=O)cc1`, the “log(1/C)” value is 3.68.

Take `Cc1ccc(/N=N/N(C)C)cc1`: the “log(1/C)” value amounted to 3.26.

Consider `COc1ccc(/N=N/N(C)C)cc1`, for which the “log(1/C)” value was 3.55.

In the case of `CCN(C)/N=N/c1ccc(C(N)=O)cc1`, the “log(1/C)” value is listed as 3.24.

As for `CN(C)/N=N/c1ccc(C(N)=O)cc1`, the “log(1/C)” value worked out at 3.32.

Regarding `CN(C)/N=N/c1[nH]cnc1C(N)=O` [DACARBAZINE], the “log(1/C)” value is reported as 2.68.

Tested on in a further data set: not listed separately
The experiment in a line: Half life of the compound at pH 7.4 at 37 degC in presence of serum.
Conditions: not given
Type of data set: physicochemical.
The term half-life denotes the time needed for the level to fall by half in the phase considered. Turning to `C/N=N/Nc1ccccc1`, the half-life was 6 min.

In a further data set the test system is L1210. Put plainly: Antitumor activity against mouse L1210 cells allografted in mouse assessed as survival rate at 100 mg/kg relative to control. Format: functional.
Conditions: not given
One may read the T/C as the ratio of treated to control. As for `CCN(CC)/N=N/c1[nH]cnc1C(N)=O`, the T/C was found to be 127%.

The next data set concerns L1210. The experiment in a line: Antitumor activity against mouse L1210 cells allografted in mouse assessed as survival rate at 200 mg/kg relative to control. Type of data set: functional.
Conditions: not given
Consider `CCCCN(CC)/N=N/c1[nH]cnc1C(N)=O`, for which the T/C amounted to 124%.

In the case of `CCN(CC)/N=N/c1n[nH]cc1C(N)=O`, the T/C came to 144%.

The subject of the next data set is L1210. Put plainly: Antitumor activity against mouse L1210 cells allografted in mouse assessed as survival rate at 265 mg/kg relative to control. Type of data set: functional.
Conditions: not given
`CCCN(CCC)/N=N/c1c(C)n[nH]c1C(=O)OC`: the T/C was 131%.

The test system of a further data set is L1210. Put plainly: Antitumor activity against mouse L1210 cells allografted in mouse assessed as survival rate at 32 mg/kg relative to control. Type of data set: functional.
Conditions: not given
Turning to `CCCCN(CCCC)/N=N/c1cc(=O)[nH]c(=O)[nH]1`, the T/C turned out to be 145%.

A further data set relates to L1210. Put plainly: Antitumor activity against mouse L1210 cells allografted in mouse assessed as survival rate at 250 mg/kg relative to control.
Conditions: not given
Type of data set: functional.
Regarding `NC(=O)c1nc[nH]c1/N=N/N1CCCC1`, the T/C is 126%.

A further data set concerns L1210. The experiment in a line: Antitumor activity against mouse L1210 cells allografted in mouse assessed as survival rate at 20 mg/kg relative to control. Format: functional.
Conditions: not given
Regarding `Cc1n[nH]c(C)c1/N=N/N1CCOCC1`, the T/C came to 124%.

The subject of a further data set is L1210. The experiment in a line: Antitumor activity against mouse L1210 cells allografted in mouse assessed as survival rate at 450 mg/kg relative to control. Type of data set: functional.
Conditions: not given
Turning to `CCN(CC)/N=N/c1ccc[n+]([O-])c1`, the T/C is 141%.

These data come from ChEMBL document CHEMBL3272148, “Antitumor 1-(X-aryl)-3,3-dialkyltriazenes. 2. On the role of correlation analysis in decision making in drug modification. Toxicity quantitative structure-activity relationships of 1-(X-phenyl)-3,3-dialkyltriazenes in mice” (J Med Chem, 1978).
